In US8541576B2, “Substituted pyrazolo-quinazoline derivatives as kinase inhibitors” (Nerviano Medical Sciences SRL, priority 2010, dated 2013):

Experiments:
Full-length human PIM-1 = biological target: T1, Full-length human PIM-1 (Homo sapiens, UniProt P11309); assay: Biochemical assay for inhibitors of PIM-1 kinase activity (trans-phosphorylation, Dowex resin, 33P-ATP); settings: ATP 200 μM, enzyme 1 nM, Aktide 25 μM
T1 construct: Full-length human PIM-1 was expressed and purified; made in house
Method: Biochemical assay for inhibitors of PIM-1 kinase activity
The inhibitory activity of putative kinase inhibitors and the potency of selected compounds were determined using a trans-phosphorylation assay.
Specific peptide or protein substrates are trans-phosphorylated by their specific ser-thr or tyr kinase in the presence of ATP traced with ^33P-γ-ATP, and in the presence of their own optimal buffer and cofactors.
At the end of the phosphorylation reaction, more than 98% unlabeled ATP and radioactive ATP is captured by an excess of the ion exchange Dowex® resin; the resin then settles down to the bottom of the reaction plate by gravity.
Supernatant is subsequently withdrawn and transferred into a counting plate, then evaluated by β-counting.
The buffer for PIM-1 assay was composed of HEPES 50 mM, at pH 7.5, with 10 mM MgCl2, 1 mM DTT, 3 μM NaVO3, and 0.2 mg/ml BSA
Full-length human PIM-1 was expressed and purified as described in Bullock A N, et al., J. Biol. Chem. 2005, 280, 41675-82.
1.7 μM PIM1 was incubated 1 hour RT at 28° C. in the presence of 125 μM ATP
ATP concentration: 200 μM
Enzyme concentration: 1 nM
Substrate concentration Aktide (Chemical Abstract Service Registry Number 324029-01-8): 25 μM
The test mix consisted of:
1) 3× Enzyme mix (done in Kinase Buffer 3×), 5 μL/well
2) 3× substrate and ATP mix (done in ddH2O), together with ^33P-γ-ATP, 5 μL/well
3) 3× test compounds (diluted into ddH2O—3% DMSO)-5 μL/well
For IC50 determination, test compounds are received as a 1 mM solution in 100% DMSO and distributed into 96-well plates: compounds are then plated into the first column of a new 96-well plate (A1 to G1), 100 μl/well.
An automated station (Biomek FX®, Beckman) is used for serial dilutions, producing 1:3 dilutions in 100% DMSO, from line A1 to A10, for all the compounds in the column. Moreover, 4-5 copies of daughter plates are prepared by reformatting 5 μL of this first set of 100% DMSO dilution plates into 384-deep well plates: one copy of these serial dilution plates with the test compounds is thawed on the day of study, reconstituted at the working concentration (3-fold the final concentration) with 162 μL/well of water and used for IC50 determination assays. In a standard experiment, the highest concentration (3×) of compounds is typically 30 μM, while the lowest one is typically 1.5 nM.
Each 384-well plate generates at least one curve of the standard inhibitor staurosporine and reference wells (total enzyme activity vs. no enzymatic activity) for evaluation of Z′ and signal to background (S/B) ratio.
384-well plates, V bottom (test plates) are prepared with 5 μl of compound diluted as previously described (3×) and then placed onto a PlateTrak® 12 robotized station (Perkin Elmer; the robot has one 384-tip pipetting head for assay start, plus one 96-tip head for dispensing resin) together with one reservoir for Enzyme mix (3×) and one for ATP mix (3×).
Data are analyzed by an internally customized version of the “Assay Explorer®” SW package, which provides sigmoidal fitting of the ten-dilution curves for IC50 determination in secondary assay/hit confirmation routines.

Full-length human PIM-2 = biological target: T2, Full-length human PIM-2 (Homo sapiens, UniProt Q9P1W9); assay: PIM-2 kinase inhibition assay: Dowex technique; format: biochemical; settings: ATP 4 μM, enzyme 1.5 nM, Aktide 5 μM
T2 construct: Full-length human PIM-2 was expressed and purified; made in house
Method: Method for PIM-2 Kinase Inhibition Assay: Dowex Technique
The buffer for PIM-2 assay was composed of HEPES 50 mM, at pH 7.5, with 1 mM MgCl2, 1 mM DTT, 3 μM Na3VO4, and 0.2 mg/ml BSA
Full-length human PIM-2 was expressed and purified as described in Fedorov O, et al. (2007) PNAS 104, 51, 20523-28.
Assay Conditions (Final Concentrations):
Enzyme concentration=1.5 nM
Aktide substrate (Chemical Abstract Service Registry Number 324029-01-8)=5 μM
See above: same procedure as described for PIM-1.

[1] = system: MV-4-11 (biphenotypic B myelomonocytic leukemia) cells; assay: In vitro cell proliferation assay (CellTiter-Glo); format: cell-based; settings: Homo sapiens, MV4-11, antiproliferative activity, 72 hours
Method: In Vitro Cell Proliferation Assay:
MV-4-11 (biphenotypic B myelomonocytic leukemia) cells (1250 cells/well) were seeded in white 384 well-plates in complete medium (RPMI 1640 or EMEM plus 10% Fetal bovine serum) and treated with compounds dissolved in 0.1% DMSO, 24 h after seeding. The cells were incubated at 37° C. and 5% CO2 and after 72 hours the plates were processed using CellTiter-Glo® assay (Promega) following the manufacturer's instruction. CellTiter-Glo® is a homogenous method based on the quantification of the ATP present, an indicator of metabolically active cells. ATP is quantified using a system based on luciferase and D-luciferin resulting into light generation. The luminescent signal is proportional to the number of cells present in culture.
Briefly 25 μl/well reagent solution was added to each wells and after 5 minutes shacking microplates were red by Envision® (PerkinElmer) luminometer. The luminescent signal was proportional to the number of cells present in culture.
Inhibitory activity was evaluated comparing treated versus control data using Assay Explorer (MDL) program. IC50 was calculated using sigmoidal interpolation curve.

BaF3 parental line = assay: In vitro cell proliferation potency assay, BaF3 parental line with IL-3 (Cell Titer Glo); format: cell-based, murine; settings: Mus musculus; BaF3 parental cells with mIL-3, incubated overnight; read-out: Prolif BaF3 IL3 (EC50)
Description: (§1) BaF3 is a murine interleukin-3 dependent pro-B cell line, useful as a model system for assessing both the potency and downstream signaling of kinase oncogenes (“Ba/F3 cells and their use in kinase drug discovery”, Warmuth, M, et al, (January 2007) Current Opinion in Oncology, Vol 19(1):55-60). BaF3 parental line was obtained from the DSMZ repository. BaF3 lines transfected with PIM1 or PIM2 were generated. Mouse IL-3 was purchased from R&D Systems. G418 was purchased from Clontech. Media for BaF3 parental line contained RPMI, 10% FBS, 2 mM L-Glutamine, 2 ng/mL mIL-3. Media for BaF3 PIM1 & 2 lines contained RPMI, 10% FBS, 2 mM L-Glutamine, […]. Media for MM1.S (multiple myeloma cells) line contained RPMI, 10% FBS, 2 mM L-Glutamine.
(§2) Parental cells, BaF3 PIM1 cells, BaF3 PIM2 cells, and MM1.S (multiple myeloma) cells were seeded at 2 k/well, 5 k/well, 5 k/well, and 10 k/well respectively, in a 384-well plate, at 45 μL/well. Test compound was added at 5 μL/well. BaF3 cells (parental and transfected) were incubated overnight, while MM1.S cells were incubated for 72 hours at 37° C., 5% CO2. CELL TITER GLO® Reagent (Promega) was added at 50 μL/well, the plates were incubated for 30 minutes, and their luminescence read on an HT Analyst. IC50/EC50 values for the test compound were calculated.

BaF3 PIM1 cells = assay: In vitro cell proliferation potency assay, BaF3 transfected with PIM1 (Cell Titer Glo); format: cell-based, murine; settings: Mus musculus, incubated overnight, read-out: Prolif BaF3 PIM1 (EC50)
Description: as §1, §2

[2] = system: phosphorylation of BAD at Ser112 by PIM kinases; assay: Western blot of phospho-BAD (Ser112) in MV-4-11 cells; format: cell-based, human; settings: different concentrations, 3 hours, compared to DMSO treated cells, FIG. 2
Method: To further establish that the cytotoxicity of the compounds of the present invention resulted from the inhibition of PIM kinases, we examined the phosphorylation of the pro-apoptotic protein BAD by PIM kinases in the presence or absence of PIM inhibitors in MV-4-11 leukemia cell lines.
MV-4-11 cells were plated in 6 well plates at 1.5×10^6 cells/ml and treated with different concentrations of PIM-inhibitors for 3 hours. Cells were harvested, washed with PBS buffer and lysed with lysis buffer (2% SDS, 100 mM Tris ph 7.5, 1:100 Phosphatase Inhibitor Cocktail 1 (SIGMA) and 1:100 Phosphatase Inhibitor Cocktail 2(SIGMA) and Complete Protease Inhibitor (Roche). The protein concentration in the lysates was quantified using the BCA Protein Assay Kit (Pierce). Equal amounts of protein were loaded onto 4-12% gradient Tri-glycine gel for SDS-PAGE analysis. Then the proteins were transferred to PVDF membranes (Millipore) for Western Blotting. Membranes were probed with the antibody for phospho-Bad (Ser112) (Cell Signaling Technologies).

T1 sequence (P11309 whole entry): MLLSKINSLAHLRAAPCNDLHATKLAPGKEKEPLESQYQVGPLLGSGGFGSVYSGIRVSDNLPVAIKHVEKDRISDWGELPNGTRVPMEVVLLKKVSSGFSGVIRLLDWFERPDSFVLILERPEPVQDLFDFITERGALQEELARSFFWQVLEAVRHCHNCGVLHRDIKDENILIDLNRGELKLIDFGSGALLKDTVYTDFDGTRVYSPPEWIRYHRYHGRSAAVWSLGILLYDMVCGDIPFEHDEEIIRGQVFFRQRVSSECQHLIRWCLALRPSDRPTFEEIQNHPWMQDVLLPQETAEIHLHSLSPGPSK
T2 sequence (Q9P1W9 whole entry): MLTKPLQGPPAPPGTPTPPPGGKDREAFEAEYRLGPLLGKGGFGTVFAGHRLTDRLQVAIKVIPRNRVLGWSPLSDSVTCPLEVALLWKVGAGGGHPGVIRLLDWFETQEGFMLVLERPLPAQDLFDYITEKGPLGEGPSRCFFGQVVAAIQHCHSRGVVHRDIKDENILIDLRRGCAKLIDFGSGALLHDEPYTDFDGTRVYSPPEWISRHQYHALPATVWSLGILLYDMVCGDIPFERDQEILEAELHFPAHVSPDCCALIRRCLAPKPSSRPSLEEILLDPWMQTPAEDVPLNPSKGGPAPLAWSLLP

Row | SMILES | IC50 (Full-length human PIM-1) [nM] | IC50 (Full-length human PIM-2) [nM] | IC50 [1] [nM] | EC50 (BaF3 parental line) [nM] | EC50 (BaF3 PIM1 cells) [nM] | levels of pBAD (s112) by western blot [2]
1 | CN1CCN(c2ccc(Oc3ncc4ccc5c(C(N)=O)nn(C(C)(C)C)c5c4n3)cc2)CC1 [Compound 51, 1-tert-butyl-8-[4-(4-methylpiperazin-1-yl)phenoxy]-1H-pyrazolo[4,3-h]quinazoline-3-carboxamide] | 4 | 15 | 192 | 9300 | 210 | 
2 | CSc1ncc2ccc3c(C(N)=O)nn(C(C)(C)C)c3c2n1 [Compound 85, 1-tert-butyl-8-(methylsulfanyl)-1H-pyrazolo[4,3-h]quinazoline-3-carboxamide] | 1 | 2 | 103 | 13000 | 310 | dose dependent reduction
3 | CSc1ncc2ccc3c(C(N)=O)nn(C4CCC(N)CC4)c3c2n1 (centres unmarked) [Compound 93, 1-(4-aminocyclohexyl)-8-(methylsulfanyl)-1H-pyrazolo[4,3-h]quinazoline-3-carboxamide] | 1 | 1 | 448 | 7900 | 44 | 
4 | CSc1ncc2ccc3c(C(N)=O)nn([C@@H]4C[C@H]5CC[C@@H](C4)N5)c3c2n1 [Compound 99, 1-[(3-exo)-8-azabicyclo[3.2.1]oct-3-yl]-8-(methylsulfanyl)-1H-pyrazolo[4,3-h]quinazoline-3-carboxamide] | 16 | 33 | 102 |  |  | 
5 | CSc1ncc2ccc3c(C(N)=O)nn(C(C)CCN)c3c2n1 (centres unmarked) [Compound 102, 1-(4-aminobutan-2-yl)-8-(methylsulfanyl)-1H-pyrazolo[4,3-h]quinazoline-3-carboxamide] | 1 | 1 | 35 |  |  | 
6 | CSc1ncc2ccc3c(C(N)=O)nn(C4CN5CCC4CC5)c3c2n1 (centres unmarked) [Compound 103, 1-(1-azabicyclo[2.2.2]oct-3-yl)-8-(methylsulfanyl)-1H-pyrazolo[4,3-h]quinazoline-3-carboxamide] | 15 | 28 | 221 |  |  | 
7 | CSc1ncc2ccc3c(C(N)=O)nn(C4CCOCC4)c3c2n1 [Compound 104, 8-(methylsulfanyl)-1-(tetrahydro-2H-pyran-4-yl)-1H-pyrazolo[4,3-h]quinazoline-3-carboxamide] | 14 | 35 | 185 |  |  | 
8 | CSc1ncc2ccc3c(C(N)=O)nn([C@H]4C[C@H](CO)C4)c3c2n1 [Compound 105, 1-[trans-3-(hydroxymethyl)cyclobutyl]-8-(methylsulfanyl)-1H-pyrazolo[4,3-h]quinazoline-3-carboxamide] | 3 | 14 | 16.8 |  |  | 
9 | CSc1ncc2ccc3c(C(N)=O)nn([C@H]4C[C@@H](CO)C4)c3c2n1 [Compound 106, 1-[cis-3-(hydroxymethyl)cyclobutyl]-8-(methylsulfanyl)-1H-pyrazolo[4,3-h]quinazoline-3-carboxamide] | 3 | 13 | 21 |  |  | 
10 | NC(=O)c1nn(C2CCC(N)CC2)c2c1ccc1cnc(-c3ccsc3)nc12 (centres unmarked) [Compound 112, 1-(4-aminocyclohexyl)-8-(thiophen-3-yl)-1H-pyrazolo[4,3-h]quinazoline-3-carboxamide] | 300 | 43 |  | 2000 | 1300 | 
